Results as given in ChEMBL document CHEMBL4616604, “Comparing a thioglycosylated chlorin and phthalocyanine as potential theranostic agents” (Bioorg Med Chem, 2020).

Assays:
[1] = Drug uptake in human MDA-MB-231 cells at 1 uM incubated for 24 hrs by fluorescence imaging analysis; type: ADME, cell-based; settings: mda-mb-231, 24 h
MDA-MB-231 [2] = assay: Phototoxicity against human MDA-MB-231 cells assessed as inhibition of cell viability incubated with compound for 2 hrs followed by irradiation with 0.92 mW cm'-2 light and measured after overnight incubation by CellTiter Blue assay; type: functional, cell-based; settings: MDA-MB-231, light or radiation study
[3] = Time dependent drug uptake in human MDA-MB-231 cells at 10 uM incubated up to 24 hrs by spectrofluorometric analysis; type: ADME, cell-based; settings: mda-mb-231, 24 h
MCF7 [4] = assay: Dark cytotoxicity against human MCF7 cells assessed as inhibition of cell viability incubated for 24 hrs by CellTiter Blue assay; type: cell-based; settings: MCF7, 24 h
[5] = Drug uptake in human MCF7 cells at 1 uM incubated for 24 hrs by fluorescence imaging analysis; type: ADME, cell-based; settings: mcf7, 24 h
[6] = Time dependent drug uptake in human MCF7 cells at 10 uM incubated up to 24 hrs by spectrofluorometric analysis; type: ADME, cell-based; settings: mcf7, 24 h
MCF7 [7] = assay: Phototoxicity against human MCF7 cells assessed as inhibition of cell viability incubated with compound for 2 hrs followed by irradiation with 0.92 mW cm'-2 light and measured after overnight incubation by CellTiter Blue assay; type: functional, cell-based; settings: MCF7, light or radiation study
[8] = Drug uptake in athymic mouse xenografted with HNSCC cells at 0.1 mM administered iv measured up to 4 days post-drug administration by IVIS spectrum in vivo fluorescence imaging analysis; type: ADME, organism-based; settings: 96 h, 100 µM
MDA-MB-231 [9] = assay: Dark cytotoxicity against human MDA-MB-231 cells assessed as inhibition of cell viability incubated for 24 hrs by CellTiter Blue assay; type: cell-based; settings: MDA-MB-231, 24 h

Drug uptake [1]: Active | Drug uptake [3]: Active | Drug uptake [5]: Active | Drug uptake [6]: Active | Drug uptake [8]: Active
Compound: CN1CC2c3nc(c(-c4c(F)c(F)c(S[C@@H]5O[C@H](CO)[C@@H](O)[C@H](O)[C@H]5O)c(F)c4F)c4ccc([nH]4)c(-c4c(F)c(F)c(S[C@@H]5O[C@H](CO)[C@@H](O)[C@H](O)[C@H]5O)c(F)c4F)c4nc(c(-c5c(F)c(F)c(S[C@@H]6O[C@H](CO)[C@@H](O)[C@H](O)[C@H]6O)c(F)c5F)c5ccc([nH]5)c3-c3c(F)c(F)c(S[C@@H]5O[C@H](CO)[C@@H](O)[C@H](O)[C@H]5O)c(F)c3F)C=C4)C2C1 (some centres undefined)
IC50 (MDA-MB-231 [2]): 1 to 2 µM | IC50 (MCF7 [4]): > 100 µM | IC50 (MCF7 [7]): 1 to 2 µM | IC50 (MDA-MB-231 [9]): > 100 µM
